In brackets after ≈: the same amount, converted by molar mass.
Columns and labels:
Solubility = assay type: physicochemical
Bacillus cereus = experiment: Antimicrobial activity, paper disk method on trypticase-soy-agar; assay type: cell-based; details: paper disk diam. 8 mm, 0.02 ml of a 300 μg/ml solution
Method: (§1) Using trypticase-soy-agar (Baltimore Biologicals, U.S.A.) as a test medium, the minimal inhibitory concentration of each compound against the following microorganisms was determined by the paper disk method. Thus, on plate media containing the following organisms, growth inhibition was investigated using paper disks (Toyo Roshi Corp., Japan thin-type, diam. 8 mm) imbibed with 0.02 ml of a 300 μg/ml solution of PND-1, PND-2, PND-3 or PND-4.
(§2) Escherichia coli, Proteus vulgaris, Proteus mirabilis, Pseudomonas aeruginosa, Staphylococcus aureus, Bacillus subtilis, Bacillus cereus, Klebsiella pneumoniae, Serratia marcescens, Mycobacterium avium.

Bacillus subtilis = experiment: as above; assay type: cell-based; details: paper disk diam. 8 mm, 0.02 ml of a 300 μg/ml solution
Method: as §1, §2

Escherichia coli = experiment: as above; assay type: cell-based; details: paper disk diam. 8 mm, 0.02 ml of a 300 μg/ml solution
Method: as §1, §2

Klebsiella pneumoniae = experiment: as above; assay type: cell-based; details: paper disk diam. 8 mm, 0.02 ml of a 300 μg/ml solution
Method: as §1, §2

Mycobacterium avium = experiment: as above; assay type: cell-based; details: paper disk diam. 8 mm, 0.02 ml of a 300 μg/ml solution
Method: as §1, §2

Proteus mirabilis = experiment: as above; assay type: cell-based; details: paper disk diam. 8 mm, 0.02 ml of a 300 μg/ml solution
Method: as §1, §2

Proteus vulgaris = experiment: as above; assay type: cell-based; details: paper disk diam. 8 mm, 0.02 ml of a 300 μg/ml solution
Method: as §1, §2

Pseudomonas aeruginosa = experiment: as above; assay type: cell-based; details: paper disk diam. 8 mm, 0.02 ml of a 300 μg/ml solution
Method: as §1, §2

Serratia marcescens = experiment: as above; assay type: cell-based; details: paper disk diam. 8 mm, 0.02 ml of a 300 μg/ml solution
Method: as §1, §2

Staphylococcus aureus = experiment: as above; assay type: cell-based; details: paper disk diam. 8 mm, 0.02 ml of a 300 μg/ml solution
Method: as §1, §2

[1] = tested on: Hamigera avellanea IFO 7721; experiment: Microbiological assay, paper disk method; assay type: cell-based; details: IFO7721, paper disk diam. 8 mm, 0.02 ml of a 100 μg/ml solution, pH 7.0 medium, read-out: diameter of zone of inhibition
Method: On the other hand, on a plate assay medium [disodium phosphate 3.5 g, monopotassium phosphate 0.5 g, yeast extract (Difco, U.S.A.) 5 g, glucose 10 g, agar 15 g, distilled water 1000 ml, pH 7.0], a microbiological assay was carried out by the paper disk method using Hamigera avellanea IFO 7721 as a test organism. On said plate medium inoculated with said organism, growth inhibition was examined using a paper disk (Toyo Roshi Corp., Japan, Thin type, diam.8 mm) imbibed with 0.02 ml of a 100 μg/ml solution of PND-1, PND-2, PND-3 or PND-4. The diameters of zones of inhibition were 28 mm for PND-1, 30 mm for PND-2, 34 mm for PND-3 and 36 mm for PND-4.

[2] = tested on: Tetrahymena pyriformis W strain; experiment: Minimal inhibitory concentration, serial broth dilution method; assay type: cell-based; details: 28° C., 44 to 48 hours
Method: On the other hand, Tetrahymena pyriformis W strain, as a test organism, was cultivated on an assay medium [Proteose-peptone (Difco) 20 g, yeast extract 1 g, glucose 2 g, distilled water 1000 ml, 1 M phosphate buffer (pH 7.0) 10 ml] at 28° C. for 44 to 48 hours and the minimal inhibitory concentrations of the antibiotics against said organisms were determined by the serial broth dilution method.

P388 tumor cell = experiment: Antitumor activity in P388 tumor-bearing mice; assay type: in vivo; details: P388 1×10^6 cell/mouse, intraperitoneal
Text: The therapeutic action of PND-1, PND-2, PND-3 and PND-4 against P388 tumor cell (1×10^6 cell/mouse, intraperitoneal) was investigated.

mice = experiment: Acute toxicity test in mice; assay type: in vivo; details: intraperitoneal
Text: In an acute toxicity test performed in mice, PND-1, PND-2, PND-3 and PND-4 were given to animals by the intraperitoneal route.

Row | Compound | Solubility in chloroform, ethyl acetate, acetone, ethanol, methanol, pyridine, tetrahydrofuran, dimethylsulfoxydo (Solubility) | Solubility in petroleum ether, n-hexane, water (Solubility) | growth inhibition (Bacillus cereus) | growth inhibition (Bacillus subtilis) | growth inhibition (Escherichia coli) | growth inhibition (Klebsiella pneumoniae) | growth inhibition (Mycobacterium avium) | growth inhibition (Proteus mirabilis) | growth inhibition (Proteus vulgaris) | growth inhibition (Pseudomonas aeruginosa) | growth inhibition (Serratia marcescens) | growth inhibition (Staphylococcus aureus) | zone of inhibition at 100 µg/mL [1] | MIC [2] | life span of tumor-bearing mouse (P388 tumor cell) | LD0 (mice) | LD100 (mice)
1 | COc1cc2cc(c1Cl)NC(=O)C[C@H](O)[C@]1(C)O[C@H]1[C@H](C)[C@@H]1C[C@@](O)(NC(=O)O1)[C@H](OC)/C=C/C=C(\C)C2 [PND-0] | soluble | insoluble |  |  |  |  |  |  |  |  |  |  |  |  |  |  | 
2 | COc1cc2cc(c1Cl)NC(=O)C[C@H](OC(C)=O)[C@]1(C)O[C@H]1[C@H](C)[C@@H]1C[C@@](O)(NC(=O)O1)[C@H](OC)/C=C/C=C(\C)C2 [PND-1] | soluble | insoluble | did not exhibit activity | did not exhibit activity | did not exhibit activity | did not exhibit activity | did not exhibit activity | did not exhibit activity | did not exhibit activity | did not exhibit activity | did not exhibit activity | did not exhibit activity | 28 mm | 8 mg/L (≈ 13.5 µM) | prolong the life span of a tumor-bearing mouse | 0.313 mg/kg | 2.5 mg/kg
3 | CCC(=O)O[C@H]1CC(=O)Nc2cc(cc(OC)c2Cl)C/C(C)=C/C=C/[C@@H](OC)[C@@]2(O)C[C@H](OC(=O)N2)[C@@H](C)[C@@H]2O[C@@]12C [PND-2] | soluble | insoluble | did not exhibit activity | did not exhibit activity | did not exhibit activity | did not exhibit activity | did not exhibit activity | did not exhibit activity | did not exhibit activity | did not exhibit activity | did not exhibit activity | did not exhibit activity | 30 mm | 4 mg/L (≈ 6.59 µM) | prolong the life span of a tumor-bearing mouse | 0.313 mg/kg | 2.5 mg/kg
4 | COc1cc2cc(c1Cl)NC(=O)C[C@H](OC(=O)C(C)C)[C@]1(C)O[C@H]1[C@H](C)[C@@H]1C[C@@](O)(NC(=O)O1)[C@H](OC)/C=C/C=C(\C)C2 [PND-3] | soluble | insoluble | did not exhibit activity | did not exhibit activity | did not exhibit activity | did not exhibit activity | did not exhibit activity | did not exhibit activity | did not exhibit activity | did not exhibit activity | did not exhibit activity | did not exhibit activity | 34 mm | 2 mg/L (≈ 3.22 µM) | prolong the life span of a tumor-bearing mouse | 0.313 mg/kg | 2.5 mg/kg
5 | COc1cc2cc(c1Cl)NC(=O)C[C@H](OC(=O)CC(C)C)[C@]1(C)O[C@H]1[C@H](C)[C@@H]1C[C@@](O)(NC(=O)O1)[C@H](OC)/C=C/C=C(\C)C2 [PND-4] | soluble | insoluble | did not exhibit activity | did not exhibit activity | did not exhibit activity | did not exhibit activity | did not exhibit activity | did not exhibit activity | did not exhibit activity | did not exhibit activity | did not exhibit activity | did not exhibit activity | 36 mm | 1 mg/L (≈ 1.57 µM) | prolong the life span of a tumor-bearing mouse | 0.313 mg/kg | 2.5 mg/kg
